In US11446352B2, “Compositions and methods for inhibiting tumor-induced immune suppression” (priority 2017, dated 2022):
Entries after “also recorded” stand apart in the source; their conditions may differ.

Legend:
E0771 murine cells = test: autophagy in E0771 cells (fluorescence micrographs); assay type: cell-based
AT3 cells = test: Western blot of control and EnnA-treated cells; assay type: cell-based, murine; conditions: AT3, 0.5 μM EnnA
Protocol: (§1) FIG. 3A-3B are autoradiographs of a Western blot showing expression of the indicated proteins in control (left lane) and 0.5 μM EnnA-treated (right lane) E0771 (FIG. 3A) and AT3 (FIG. 3B) cells. FIG. 3C is a graph showing FACS analysis of PD-L1 level in AT3 cells. FIGS. 3D-3K are graphs showing qPCR analysis of the mRNA level of cytokines TNFa (FIG. 3D), IL-6 (FIG. 3E), TGFb1 (FIG. 3F) and IL-10 (FIG. 3G), the chemokines S100a9 (FIG. 3J) and CCL3 (FIG. 3K), as well as PDL1 (FIG. 3H) and IDO (FIG. 3I). FIGS. 3L-3Q are micrographs of HEK293 cells transiently transfected with GFP-IDO fusion protein expressing or GFP alone plasmids for 24 h. Cells were then treated with 5 μM EnnA for 6 h and analyzed for green fluorescence and bright light. FIG. 3R is a line graph of μg/ml of tryptophan and its IDO-mediated product kynurenine using the previously reported HPLC-based assay.

IDO = test: HPLC-based assay of tryptophan and kynurenine in culture media; assay type: cell-based; conditions: HEK 293 cells expressing IDO-GFP
Protocol: as §1
Western blot analysis (FIG. 3A-3B) confirmed that EnnA destabilizes pAKT and reduces the protein expression of Hsp40 in E0771 and AT3. […] It also reduces the mRNA level of the chemokines S100a9 and CCL3 (FIG. 3J-3K). Importantly, EnnA reduces the mRNA and protein levels of the key immunological checkpoint component PDL-1 (FIG. 3H). Similar results were obtained with EMT6 (not shown). […]

[1] = system: Hsp90β on the surface of E0771 and AT3 cells; test: FACS analysis of Hsp90β expression on the cell surface; assay type: cell-based, murine; conditions: in vitro (E0771, AT3 cell culture) and in vivo (E0771 tumors)
Source text: FIGS. 2I-2K show FACS analysis of Hsp90β expression on the cell surface of E0771 cells treated with DMSO or EnnA. FIGS. 2L-2N show FACS analysis of the ratio of Hsp90α to Hsp90β expression on the cell surface of E0771 cells treated with DMSO or EnnA. FIGS. 2O-2Q show FACS analysis of Hsp90α expression on the cell surface of E0771 cells treated with DMSO or EnnA. FIG. 2R is a bar graph showing expression of Hsp90β on the surface of AT3 cells treated with DMSO or EnnA. FIG. 2S is a bar graph showing expression of Hsp90α on the surface of AT3 cells treated with DMSO or EnnA. FIGS. 2T-2X show FACS analysis of Hsp90β expression on the surface of E0771 tumor cells treated with mIgG, DMSO, or EnnA.

[2] = system: murine breast cancer cells; test: qPCR analysis of mRNA level of cytokines, chemokines, PDL1 and IDO; assay type: cell-based
Protocol: as §1

[3] = system: Hs587T and MDA-MB-453 cell lines; test: autophagy, mitochondria content and mitophagy in treated cancer cells; assay type: cell-based, human
Source text: (§2) The first bar indicates 100% folding activity of RRL without inhibitor. PR22 indicates the antibody without PR but with RRL and EnnA. PR represents the antibody (PR22) with PR but without RRL. All other samples have PR22, PR, and RRL without (first bar) or with increased concentration of EnnA. FIGS. 1C-1E are line graphs of cell survival versus EnnA concentration (μM) in breast cancer cell lines Hs578T (FIG. 1C), […] (FIG. 1D) and MDA-MB231 (FIG. 1E) upon treatment with EnnA for 48 and 72 h. […] PR alone (PR), antibody (PR22)+RRL, PR+RRL without inhibitor (RRL), PR+RRL with 1 μM 17-AAG (17AAG) PR+RRL with 10 μM BEAU or EnnA. FIGS. 1G-1I are autoradiographs of Western blots of cytosols from various cell lines treated with 17-AAG (1 μM) or EnnA (3 μM) with antibodies against the specified proteins. FIG. 1J is an autoradiograph showing EnnA causes autophagy in Hs578T and MDA-MB453 cell lines. FIGS. 1K-1N are electron microscopy micrographs showing autophagosomes and reduced mitochondria content in Hs578T cells treated with DMSO or EnnA. FIGS. 1O-1P are fluorescence micrographs showing EnnA causing reduced mitochondria content in Hs578T cells. FIGS. 1Q-1BB are fluorescence micrographs showing mitophagy in Hsp578T cells treated with EnnA as indicated by colocalization of the mitochondria marker Cox4 and the autophagy marker LC3BII.

E0771 tumors = test: E0771 tumor model: EnnA versus 17-AAG and combinations with CPA or anti-CD8; assay type: in vivo, mice
Protocol: Groups of mice (n=10) were implanted with 50,000 E0771 cells. When tumors were about 150 mm3 in volume (10 days post-implantation), mice were injected every other day with DMSO, EnnA (10 mg/Kg) or 17-AAG (10 mg/Kg). Two extra groups were made. In one group, EnnA was combined with one dose (150 mg/Kg) of cyclophosphamide (CPA) on day 14. In the other EnnA was combined with anti-CD8 antibody (250 μg/mouse) injected on day 18 and 22.

[4] = system: Hsp90 chaperoning machine; test: progesterone receptor (PR) refolding assay using reticulocyte lysate (RRL); assay type: biochemical; conditions: 10 μM EnnA
Source text: as §2
A cell-free high-throughput screen (HTS) platform based on the progesterone receptor (PR) using reticulocyte lysate (RRL) as a source of molecular chaperones was used to screen 175 natural products (Patwardhan C A, et al., J Biomol Screen (2014)). This assay captures the physiological steps of PR refolding by the Hsp90 chaperoning machine and measures the recovery of its hormone-binding activities after mild heat treatment. It has the ability to identify inhibitors as well as activators of the core components of the Hsp90 chaperoning machine (i.e., Hsp90, Hsp70, Hsp40, Hsp90/Hsp70 organizing protein (HOP), and p23), including compounds that target chaperone complexes as well as individual proteins.

CC[C@H](C)[C@H]1C(=O)O[C@H](C(C)C)C(=O)N(C)[C@@H]([C@@H](C)CC)C(=O)O[C@H](C(C)C)C(=O)N(C)[C@@H]([C@@H](C)CC)C(=O)O[C@H](C(C)C)C(=O)N1C [EnnA, Enniatin A]
autophagy (E0771 murine cells): induces autophagy | Hsp70 protein (AT3 cells): reduced | pAKT protein (AT3 cells): destabilizes | protein expression of Hsp40 (AT3 cells): reduces | IDO enzymatic activity (tryptophan accumulation, kynurenine reduction in culture media) (IDO): loss of IDO enzymatic activity | exposure of Hsp90β to the surface of cancer cells [1]: induces exposure | level of anti-inflammatory IL-10 mRNA [2]: reduces | mRNA expression of IL-6 [2]: significant increase | mRNA expression of TGFβ [2]: significant increase | mRNA expression of TNFα [2]: significant increase | mRNA expression of indolamine 2,3 dioxygenase [2]: highly increased | mRNA level of chemokine CCL3 [2]: reduces | mRNA level of chemokine S100a9 [2]: reduces | mRNA and protein levels of PDL-1 ([2]; Western blot / FACS): reduces | mitochondria content in cancer cells ([3]; Hs578T cells): reduces | mitophagy ([3]; Hs578T cells, Cox4 / LC3BII colocalization): induction of mitophagy | mode of cell death (apoptosis / autophagy) ([3]; Hs587T and MDA-MB-453 cell lines): induces autophagy | breast cancer metastasis to the lungs (E0771 tumors; E0771 tumor bearing mice, H&E lung sections): prevents | tumor outcome (E0771 tumors; EnnA 10 mg/Kg combined with one dose (150 mg/Kg) of cyclophosphamide (CPA) on day 14): completely cured | tumor growth after CD8 T cell depletion (E0771 tumors; EnnA combined with anti-CD8 antibody (250 μg/mouse) on day 18 and 22): restores an aggressive tumor growth; also recorded: rapid regrowth of tumors | time mice remained tumor-free after the end of EnnA treatment (E0771 tumors; EnnA/CPA-treated mice): 2 months | anti-tumor efficacy compared with 17-AAG (E0771 tumors; each 10 mg/Kg every other day): more efficacious than 17-AAG | level of Hsp90 in PR complexes ([4]; protein complex analysis after PR reconstitution): reduces | accumulation of Hsp70-rich PR complexes ([4]; protein complex analysis, 1 μM 17-AAG): does not induce
